Earlier results as cited in patent publication US5888537A, “Vinca alkaloid vesicles with enhanced efficacy and tumor targeting properties” (priority 1997, dated 1999).
Read-outs that look alike come from different tables or passages of the source.

Conditions: clinical use, background

SMILES | side effect (listed as Vincristine) | side effect (listed as vincristine) | side effect
CC[C@]1(O)C[C@H]2CN(CCc3c([nH]c4ccccc34)[C@@](C(=O)OC)(c3cc4c(cc3OC)N(C=O)[C@H]3[C@@](O)(C(=O)OC)[C@H](OC(C)=O)[C@]5(CC)C=CCN6CC[C@]43[C@@H]65)C2)C1 [Free Vcr, vincristine] | Neurotoxicity | Alopecia and hair loss | –
CC[C@]1(O)C[C@@H]2CN(CCc3c([nH]c4ccccc34)[C@@](C(=O)OC)(c3cc4c(cc3OC)N(C)[C@H]3[C@@](O)(C(=O)OC)[C@H](OC(C)=O)[C@]5(CC)C=CCN6CC[C@]43[C@@H]65)C2)C1 [vinblastine] | – | – | Alopecia and hair loss
